# Test results: patent EP4786468A1, “CRYSTALLINE FORM OF HDAC6 INHIBITOR AND PREPARATION METHOD THEREFOR” (Suzhou Genhouse Bio Co., Ltd., priority 2023, dated 2025)
# pIC50: −log10 of the molar value.
# Legend:
# [1] = Solubility in water (HPLC); type: physicochemical; conditions: H2O, 37°C
# Experimental: (§1) The vial was stirred and observed in a 37°C water bath. If the sample dissolved completely, more sample was added until undissolved material remained after rotary mixing. The sample vial was sealed and stirred in a 37°C water bath for 24h, then centrifuged. The supernatant was filtered and the solubility was measured by HPLC.
# [2] = Dynamic solubility in biorelevant media (HPLC); type: physicochemical; conditions: 37°C
# Experimental: FaSSGF (Fasted State Simulated Gastric Fluid), FeSSGF (Fed State Simulated Gastric Fluid), FaSSIF (Fasted State Simulated Intestinal Fluid), and FeSSIF (Fed State Simulated Intestinal Fluid) are biorelevant media. These media better reflect the impact of the gastrointestinal physiological environment on drug release. Solubility tested in these media is closer to solubility in the human body environment.
# as §1, with “HPLC. Table 13: Dynamic Solubility of Crystal Forms in Biorelevant Media” for “HPLC.”
# [3] = Stability of the crystal form under accelerated conditions (XRPD, HPLC); type: physicochemical; conditions: for % Area: chemical stability
# Experimental: Solid samples separated under different conditions were evaluated for physical stability via XRPD testing for crystalline form and for chemical stability via HPLC testing for purity.
# Appropriate amounts of crystal form I samples were taken and subjected to a stability experiment under accelerated conditions of 40 °C/75%RH/open/1 month. Physical stability was evaluated by XRPD testing. Table 14: Stability of crystal form I
# HDAC6 = target: T1, HDAC6 (Homo sapiens, UniProt Q9UBN7); experiment: HDAC6 enzyme activity assay (fluorogenic substrate Ac-GAK(Ac)-AMC); type: biochemical; conditions: HDAC6 (Abcam), 20 µM substrate, 37°C 30 min
# T1 construct: purchased Abcam
# T1 sequence (Q9UBN7 1-1215): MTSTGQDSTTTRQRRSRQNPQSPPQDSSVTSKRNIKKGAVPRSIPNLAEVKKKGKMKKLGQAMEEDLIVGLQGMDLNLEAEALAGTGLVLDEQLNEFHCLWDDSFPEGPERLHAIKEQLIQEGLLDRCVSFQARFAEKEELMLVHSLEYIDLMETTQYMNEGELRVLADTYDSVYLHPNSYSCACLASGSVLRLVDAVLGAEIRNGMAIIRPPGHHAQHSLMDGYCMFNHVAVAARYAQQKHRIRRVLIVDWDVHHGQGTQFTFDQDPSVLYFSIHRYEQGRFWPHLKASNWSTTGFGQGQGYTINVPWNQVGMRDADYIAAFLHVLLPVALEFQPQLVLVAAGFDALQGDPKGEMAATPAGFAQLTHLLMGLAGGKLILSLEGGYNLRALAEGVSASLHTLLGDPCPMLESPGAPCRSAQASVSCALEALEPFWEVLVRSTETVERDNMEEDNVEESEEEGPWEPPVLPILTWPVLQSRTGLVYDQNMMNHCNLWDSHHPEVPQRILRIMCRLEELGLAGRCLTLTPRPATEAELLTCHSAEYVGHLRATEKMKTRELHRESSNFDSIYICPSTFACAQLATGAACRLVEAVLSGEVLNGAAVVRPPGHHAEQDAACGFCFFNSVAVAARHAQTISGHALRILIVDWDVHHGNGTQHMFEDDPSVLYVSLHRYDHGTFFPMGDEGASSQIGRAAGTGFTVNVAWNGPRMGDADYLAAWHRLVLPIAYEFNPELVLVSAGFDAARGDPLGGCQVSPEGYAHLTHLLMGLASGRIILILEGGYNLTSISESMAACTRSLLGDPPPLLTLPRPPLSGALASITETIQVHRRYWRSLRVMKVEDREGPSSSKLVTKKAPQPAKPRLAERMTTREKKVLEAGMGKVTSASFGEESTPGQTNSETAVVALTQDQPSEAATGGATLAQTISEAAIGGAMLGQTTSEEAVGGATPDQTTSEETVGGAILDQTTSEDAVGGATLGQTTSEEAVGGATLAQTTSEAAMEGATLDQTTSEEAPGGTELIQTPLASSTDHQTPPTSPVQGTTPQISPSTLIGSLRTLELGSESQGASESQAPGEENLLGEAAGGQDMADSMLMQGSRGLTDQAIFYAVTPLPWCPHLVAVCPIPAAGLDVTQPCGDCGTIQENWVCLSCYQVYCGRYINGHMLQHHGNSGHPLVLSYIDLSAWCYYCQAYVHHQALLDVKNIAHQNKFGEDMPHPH
# Description: (§7) The IC50 was obtained by fitting with GraphPad Prism 7.0 software.
# HDAC1 = target: T2, HDAC1 (Homo sapiens, UniProt Q13547); experiment: HDAC subtype enzyme activity assay; type: biochemical; conditions: read-out: HDAC1 Inhibition Rate/%
# T2 construct: purchased BPS
# T2 sequence (Q13547 whole entry, species assumed): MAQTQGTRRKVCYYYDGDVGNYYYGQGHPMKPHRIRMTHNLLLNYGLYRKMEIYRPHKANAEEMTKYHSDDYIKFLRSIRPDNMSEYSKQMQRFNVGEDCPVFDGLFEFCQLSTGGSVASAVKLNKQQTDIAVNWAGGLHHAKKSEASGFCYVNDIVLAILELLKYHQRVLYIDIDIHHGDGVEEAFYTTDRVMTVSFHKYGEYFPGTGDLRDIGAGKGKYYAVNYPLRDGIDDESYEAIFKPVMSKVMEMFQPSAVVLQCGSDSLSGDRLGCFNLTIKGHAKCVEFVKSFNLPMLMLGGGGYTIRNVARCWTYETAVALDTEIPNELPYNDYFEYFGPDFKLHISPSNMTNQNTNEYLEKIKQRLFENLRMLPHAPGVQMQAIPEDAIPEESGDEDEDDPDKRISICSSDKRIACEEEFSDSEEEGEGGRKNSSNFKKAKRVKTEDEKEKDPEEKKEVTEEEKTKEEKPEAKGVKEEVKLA
# Description: as §7
# [4] = Phase I metabolic stability in liver microsomes; type: in vitro ADME, humans; conditions: HLM
# Experimental: (§2) Evaluation of the Phase I metabolic stability of the test compound in liver microsomes from CD-1 mice (MLM), Sprague-Dawley rats (RLM), beagle dogs (DLM), cynomolgus monkeys (CLM), and humans (HLM).
# (§3) The animal and human liver microsomes used in this test system were purchased from Xenotech, Corning, or other qualified suppliers and stored in a freezer below -60°C before use.
# (§4) The test and control compounds were incubated with animal and human liver microsomes at 37±1°C for a certain period, with a maximum incubation time of 60 minutes. Samples were taken at specified time points, and the reaction was terminated with acetonitrile or other organic solvents containing an internal standard. After centrifugation, the resulting supernatant was analyzed using liquid chromatography-tandem mass spectrometry (LC-MS/MS).
# (§5) 73.21 g of dipotassium hydrogen phosphate trihydrate and 10.78 g of potassium dihydrogen phosphate were dissolved in 4000 mL of ultrapure water. The pH of the solution was adjusted to 7.40±0.10 using 10% phosphoric acid or 1 M potassium hydroxide, with a final concentration of 100 mM. […]
# (§6) Sample analysis was performed using liquid chromatography-tandem mass spectrometry (LC-MS/MS), without calibration curves and quality control samples. Semi-quantitative determination was performed using the ratio of the analyte peak area to the internal standard peak area. […]
# [5] = Phase I metabolic stability in liver microsomes; type: in vitro ADME, Sprague-Dawley rats; conditions: RLM
# Experimental: as §2, §3, §4, §5, §6
# [6] = Phase I metabolic stability in liver microsomes; type: in vitro ADME, CD-1 mice; conditions: MLM
# Experimental: as §2, §3, §4, §5, §6
# [7] = Phase I metabolic stability in liver microsomes; type: in vitro ADME, beagle dogs; conditions: DLM
# Experimental: as §2, §3, §4, §5, §6
# [8] = Phase I metabolic stability in liver microsomes; type: in vitro ADME, cynomolgus monkeys; conditions: CLM
# Experimental: as §2, §3, §4, §5, §6
# [9] = Mouse pharmacokinetic test (IV and PO); type: in vivo; conditions: BALB/c mice
# Experimental: This experimental example tested the pharmacokinetic behavior of the compound in BALB/c mice after intravenous (IV) and oral (PO) administration.
# The actual body weight of the mice was measured on the day of dosing and the dose volume was calculated. Each group consisted of 3 mice. The compound was tested in two groups: one group received a single intravenous injection, and the other group received a single oral gavage. Whole blood samples were collected via orbital bleeding at specified time points (0.25, 0.5, 1, 2, 4, 8, 24h post-dose). After blood collection, samples were immediately transferred to labeled commercial tubes containing K2-EDTA (0.85-1.15 mg), then centrifuged (3200 x g, 4°C, 10 minutes) to obtain plasma. The plasma was transferred to pre-cooled centrifuge tubes, flash-frozen on dry ice, and stored in an ultra-low temperature freezer at -60°C or lower until LC-MS/MS analysis.
# Plasma concentrations were determined using an LC-MS/MS method. […] Relevant pharmacokinetic parameters were calculated using the linear log trapezoidal method. Table 9: Mouse Pharmacokinetic Test Experimental Data
# [10] = Mouse brain-to-plasma drug concentration ratio; type: in vivo, mice
# Experimental: The actual body weight of the mice was measured on the day of dosing and the dose volume was calculated. Each group consisted of 9 mice. The compound was administered as a single intravenous (IV) injection or a single oral gavage (PO). Whole blood samples were collected via orbital bleeding at specified time points. After blood collection, samples were immediately transferred to labeled commercial tubes containing K2-EDTA (0.85-1.15 mg), then centrifuged (3200 x g, 4°C, 10 minutes) to obtain plasma. The plasma was transferred to pre-cooled centrifuge tubes, flash-frozen on dry ice, and stored in an ultra-low temperature freezer at -60°C or lower until LC-MS/MS analysis. 20 µL of plasma sample or brain tissue homogenate was added to 80 µL of internal standard solution (50 ng/mL propafenone in acetonitrile). The plate was sealed at 165 °C using a plate sealer, vortexed for 10 min on a microplate shaker (maximum speed), and centrifuged at 4000 rpm for 20 min using a low-speed benchtop centrifuge. 10 µL of the supernatant was transferred and mixed with 90 µL of acetonitrile. After vortex mixing, the plate was sealed at 165 °C, vortexed again, and 1 µL of the supernatant was taken for LC-MS/MS analysis. The plasma concentration data of the compound were processed using a non-compartmental model with WinNonlin Version 6.3 (Pharsight, Mountain View, CA) pharmacokinetic software. Relevant pharmacokinetic parameters were calculated using the linear log trapezoidal method.
# [11] = 60 min, buffer instead of NADPH regeneration system
# [12] = 60 min with NADPH regeneration system
compound,measurement,setting,value
O=C(N[C@@H]1CCCC[C@H]1N1Cc2ccc(-c3nnc(C(F)F)o3)cc2S1(=O)=O)C(F)F [Crystal Form I],solubility at 24 h,[1],49.8 µg/mL
same,solubility at 1 h,[2]; FaSSGF,34.5 µg/mL
same,solubility at 24 h,[2]; FaSSGF,51.9 µg/mL
same,solubility at 24 h,[2]; FaSSIF,96.2 µg/mL
same,solubility at 1 h,[2]; FeSSGF,45.5 µg/mL
same,solubility at 24 h,[2]; FeSSGF,55 µg/mL
same,solubility at 24 h,[2]; FeSSIF,87.5 µg/mL
same,XRPD characteristic peaks (physical stability),[3]; 40 °C/75%RH/open/1 month,remained unchanged
same,% Area,"[3]; 40 °C/75%RH/open/1 month, HPLC peak of Compound of formula (I)",99.51 % Area
same,% Area,"[3]; T0, HPLC peak of Compound of formula (I)",99.51 % Area
O=C(N[C@@H]1CCCC[C@H]1N1Cc2ccc(-c3nnc(C(F)F)o3)cc2S1(=O)=O)C(F)F [I],pIC50,HDAC6,8.24
same,inhibition at 1 µM,HDAC1,-11.9%
same,inhibition at 10 µM,HDAC1,-3.91%
same,Remaining Rate (NCF=60 min),[4]; [11],97.3%
same,Remaining Rate (T=60 min),[4]; [12],86.1%
same,Remaining Rate (NCF=60 min),[5]; [11],93.0%
same,Remaining Rate (T=60 min),[5]; [12],76.4%
same,Remaining Rate (NCF=60 min),[6]; [11],99.8%
same,Remaining Rate (T=60 min),[6]; [12],84.8%
same,Remaining Rate (NCF=60 min),[7]; [11],90.9%
same,Remaining Rate (T=60 min),[7]; [12],85.8%
same,Remaining Rate (NCF=60 min),[8]; [11],101.5%
same,Remaining Rate (T=60 min),[8]; [12],88.8%
same,CLz,[9]; IV@2mg/kg,6 mL/min/kg
same,t1/2z,[9]; IV@2mg/kg,60.6 min
same,F,[9]; PO@10mg/kg,123.92%
same,t1/2z,[9]; PO@10mg/kg,97.2 min
same,F,[9]; PO@30mg/kg,96.93%
same,t1/2z,[9]; PO@30mg/kg,52.2 min
same,F,[9]; PO@100mg/kg,95.71%
same,t1/2z,[9]; PO@100mg/kg,48.6 min
same,Brain Drug Concentration,"[10]; 2 mg/kg IV, 1 h",268 ng/mL
same,Plasma Drug Concentration,"[10]; 2 mg/kg IV, 1 h",1090 ng/mL
same,Brain Drug Concentration,"[10]; 2 mg/kg IV, 4 h",149 ng/mL
same,Plasma Drug Concentration,"[10]; 2 mg/kg IV, 4 h",595 ng/mL
same,Brain Drug Concentration,"[10]; 10mg/kg PO, 1 h",882 ng/mL
same,Plasma Drug Concentration,"[10]; 10mg/kg PO, 1 h",4993 ng/mL
same,Brain Drug Concentration,"[10]; 10mg/kg PO, 4 h",435 ng/mL
same,Plasma Drug Concentration,"[10]; 10mg/kg PO, 4 h",2833 ng/mL
